Measurements reported in PMC4460250, “Systems Pharmacology Dissecting Holistic Medicine for Treatment of Complex Diseases: An Example Using Cardiocerebrovascular Diseases Treated by TCM” (Evidence-based Complementary and Alternative Medicine : eCAM, 2015).

Key:
[1] = in vivo
[2] = in vivo; cited from earlier work

SMILES	Class(High: HIA value ≥0.7; Low: HIA value < 0.7) [1]	HIA(Human Intestinal Absorption) [2]
CCCN[C@H]1CCc2nc(N)sc2C1 [Pramipexole(S)]	High (key: High: HIA value ≥0.7; Low: HIA value < 0.7)	0.8
COc1ccc(Cc2nccc3cc(OC)c(OC)cc23)cc1OC [Papaverine]	High (key: High: HIA value ≥0.7; Low: HIA value < 0.7)	0.9
CCC(C)n1ncn(-c2ccc(N3CCN(c4ccc(OCC5COC(Cn6cncn6)(c6ccc(Cl)cc6Cl)O5)cc4)CC3)cc2)c1=O [Itraconazole(R)]	High (key: High: HIA value ≥0.7; Low: HIA value < 0.7)	0.8
NS(=O)(=O)c1cc([C@@]2(O)NC(=O)c3ccccc32)ccc1Cl [Chlorthalidone(S)]	Low (key: High: HIA value ≥0.7; Low: HIA value < 0.7)	0.65
Cc1cccc(C)c1NC(=O)[C@H](C)N [Tocainide(S)]	High (key: High: HIA value ≥0.7; Low: HIA value < 0.7)	1
NC[C@H](CC(=O)O)c1ccc(Cl)cc1 [Baclofen(R)]	High (key: High: HIA value ≥0.7; Low: HIA value < 0.7)	0.95
Clc1ccc(CO[C@H](Cn2ccnc2)c2ccc(Cl)cc2Cl)c(Cl)c1 [Miconazole(S)]	High (key: High: HIA value ≥0.7; Low: HIA value < 0.7)	0.99
N=C(N)NC[C@@H]1COC2(CCCCC2)O1 [Guanadrel(R)]	High (key: High: HIA value ≥0.7; Low: HIA value < 0.7)	0.8
O=C(NC[C@H]1CCCCN1)c1cc(OCC(F)(F)F)ccc1OCC(F)(F)F [Flecainide(R)]	High (key: High: HIA value ≥0.7; Low: HIA value < 0.7)	0.81
C[C@@H](NC(C)(C)C)C(=O)c1cccc(Cl)c1 [Bupropion(R)]	High (key: High: HIA value ≥0.7; Low: HIA value < 0.7)	0.87
CN1C(=O)NC(=O)C(C)(C2=CCCCC2)C1=O (centres unmarked) [Hexobarbital]	High (key: High: HIA value ≥0.7; Low: HIA value < 0.7)	0.95
CC(C)(C)NCC(O)COc1ccccc1C1CCCC1 (stereo in doubt) [Penbutolol(R)]	High (key: High: HIA value ≥0.7; Low: HIA value < 0.7)	1
OC(O)C(Cl)(Cl)Cl [Chloral_hydrate]	High (key: High: HIA value ≥0.7; Low: HIA value < 0.7)	1
O=C(NC[C@@H]1CCCCN1)c1cc(OCC(F)(F)F)ccc1OCC(F)(F)F [Flecainide(S)]	High (key: High: HIA value ≥0.7; Low: HIA value < 0.7)	0.81
CCCC(CCC)CCC[C@@H]1COCCN1CCO [Delmopinol(R)]	High (key: High: HIA value ≥0.7; Low: HIA value < 0.7)	0.95
CN1C(=O)CCC1c1cccnc1 (stereo in doubt) [Cotinine(R)]	High (key: High: HIA value ≥0.7; Low: HIA value < 0.7)	0.97
CC(C)NC[C@@H](O)c1ccc(NS(C)(=O)=O)cc1 [Sotalol(S)]	High (key: High: HIA value ≥0.7; Low: HIA value < 0.7)	0.95
O[C@@](CCN1CCCCC1)(c1ccccc1)C1CCCCC1 [Trihexyphenidyl(R)]	High (key: High: HIA value ≥0.7; Low: HIA value < 0.7)	1
CCCC(=O)Nc1ccc(OC[C@@H](O)CNC(C)C)c(C(C)=O)c1 [Acebutolol(S)]	High (key: High: HIA value ≥0.7; Low: HIA value < 0.7)	0.85
